Source: ChEMBL document CHEMBL1201862, “PubChem BioAssay data set” (2004)
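Cells were grown in 96-well plates and exposed to each compound for 48 hours at five concentrations; endpoints were interpolated linearly between bracketing concentrations, or set to the highest concentration if not reached. GI50 is the concentration that inhibits growth by half.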 Calls of active or inactive are those of the source. Rule as the data show it: active = GI50 up to about 1.1 µM and inactive = higher.

How the values were obtained:
Experiment in all cases: NCI anticancer screen, dose series, 48 h
786-0 = tested on: 786-0
ACHN = tested on: ACHN
COLO 205 = tested on: COLO 205
EKVX = tested on: EKVX
HCT-15 = tested on: HCT-15
HT-29 = tested on: HT-29
Hs-578T = tested on: Hs-578T
M14 = tested on: M14
MCF7 = tested on: MCF7
NCI-H23 = tested on: NCI-H23
NCI-H460 = tested on: NCI-H460
OVCAR-3 = tested on: OVCAR-3
OVCAR-8 = tested on: OVCAR-8
PC-3 = tested on: PC-3
SF-295 = tested on: SF-295
SF-539 = tested on: SF-539
UACC-257 = tested on: UACC-257
UO-31 = tested on: UO-31
HOP-92 = tested on: HOP-92
NCI-H522 = tested on: NCI-H522

Row | SMILES | GI50 (786-0) | GI50 (ACHN) | GI50 (COLO 205) | GI50 (EKVX) | GI50 (HCT-15) | GI50 (HT-29) | GI50 (Hs-578T) | GI50 (M14) | GI50 (MCF7) | GI50 (NCI-H23) | GI50 (NCI-H460) | GI50 (OVCAR-3) | GI50 (OVCAR-8) | GI50 (PC-3) | GI50 (SF-295) | GI50 (SF-539) | GI50 (UACC-257) | GI50 (UO-31) | GI50 (HOP-92) | GI50 (NCI-H522)
1 | CSc1nncc2[nH]cnc12 | > 100 µM (inactive) | > 100 µM (inactive) | > 100 µM (inactive) | > 100 µM (inactive) | > 100 µM | > 100 µM (inactive) | > 100 µM (inactive) | > 100 µM (inactive) | > 100 µM (inactive) | > 100 µM (inactive) | > 100 µM (inactive) | > 100 µM (inactive) | > 100 µM (inactive) | > 100 µM (inactive) | > 100 µM (inactive) | > 100 µM (inactive) | > 100 µM (inactive) | > 100 µM (inactive) | – | –
2 | O=c1ccn2n1CCCCC2 | > 100 µM (inactive) | > 100 µM (inactive) | > 100 µM (inactive) | > 100 µM (inactive) | > 100 µM | > 100 µM (inactive) | > 100 µM (inactive) | > 100 µM (inactive) | – | > 100 µM (inactive) | > 100 µM (inactive) | > 100 µM (inactive) | > 100 µM (inactive) | > 100 µM (inactive) | > 100 µM (inactive) | > 100 µM (inactive) | > 100 µM (inactive) | > 100 µM (inactive) | > 100 µM (inactive) | > 100 µM (inactive)
3 | O=C(O)[C@@H]1C2CC([C@@H]1C(=O)O)[C@H](N1C(=O)CCC1=O)[C@@H]2Br (some centres not stated) | > 100 µM (inactive) | > 100 µM (inactive) | > 100 µM (inactive) | > 100 µM (inactive) | > 100 µM | > 100 µM (inactive) | > 100 µM (inactive) | > 100 µM (inactive) | – | > 100 µM (inactive) | > 100 µM (inactive) | > 100 µM (inactive) | > 100 µM (inactive) | > 100 µM (inactive) | > 100 µM (inactive) | > 100 µM (inactive) | > 100 µM (inactive) | > 100 µM (inactive) | > 100 µM (inactive) | > 100 µM (inactive)
4 | CCOC(=O)c1cc2c3c(c(C(C)=O)c(O)c2[nH]1)N(C(C)=O)CC3 | > 100 µM (inactive) | 27.5 µM (inactive) | 63.2 µM (inactive) | 61 µM (inactive) | 49.7 µM | > 100 µM (inactive) | 51.9 µM (inactive) | 76.6 µM (inactive) | 55.8 µM (inactive) | 46.9 µM (inactive) | > 100 µM (inactive) | 34 µM (inactive) | 38.1 µM (inactive) | 48.3 µM (inactive) | 52.7 µM (inactive) | 48.9 µM (inactive) | > 100 µM (inactive) | 31.2 µM (inactive) | – | –
5 | C=C1C(=O)O[C@@H]2C[C@@H](C)[C@@H]3C=CC(=O)[C@@]3(C)[C@@H](O)[C@H]12 [HELENALIN] | 1.25 µM (inactive) | 1.66 µM (inactive) | 1.56 µM (inactive) | 3.13 µM (inactive) | 2.33 µM | 1.71 µM (inactive) | – | 1.98 µM (inactive) | 0.78 µM (active) | 1.66 µM (inactive) | 1.73 µM (inactive) | 1.52 µM (inactive) | 1.48 µM (inactive) | 1.92 µM (inactive) | 2.77 µM (inactive) | 1.99 µM (inactive) | 1.59 µM (inactive) | 1.68 µM (inactive) | – | 0.242 µM (active)
6 | CSCCCS/C1=C/CCCCCCCCCC1 | > 100 µM (inactive) | > 100 µM (inactive) | > 100 µM (inactive) | > 100 µM (inactive) | > 100 µM | > 100 µM (inactive) | > 100 µM (inactive) | > 100 µM (inactive) | > 100 µM (inactive) | > 100 µM (inactive) | > 100 µM (inactive) | > 100 µM (inactive) | – | > 100 µM (inactive) | > 100 µM (inactive) | > 100 µM (inactive) | > 100 µM (inactive) | > 100 µM (inactive) | > 100 µM (inactive) | –
7 | COc1cccc([C@@H]2CC(=O)c3cc4c(cc3N2)OCO4)c1 | > 100 µM (inactive) | > 100 µM (inactive) | > 100 µM (inactive) | > 100 µM (inactive) | > 100 µM | – | 64.9 µM (inactive) | > 100 µM (inactive) | > 100 µM (inactive) | – | – | > 100 µM (inactive) | > 100 µM (inactive) | > 100 µM (inactive) | > 100 µM (inactive) | > 100 µM (inactive) | > 100 µM (inactive) | > 100 µM (inactive) | > 100 µM (inactive) | –
8 | CC(=O)c1sc2c(c1O)c(=O)n(-c1ccccc1)c(=S)n2-c1ccccc1 | > 100 µM (inactive) | – | > 100 µM (inactive) | – | > 100 µM | > 100 µM (inactive) | > 100 µM (inactive) | > 100 µM (inactive) | > 100 µM (inactive) | > 100 µM (inactive) | > 100 µM (inactive) | > 100 µM (inactive) | > 100 µM (inactive) | – | > 100 µM (inactive) | – | > 100 µM (inactive) | > 100 µM (inactive) | > 100 µM (inactive) | > 100 µM (inactive)
9 | CC(C)(C)C1=NC(=S)SC2=NC(=O)C3(NN21)c1ccccc1-c1ccccc13 | 9.57 µM (inactive) | 6.14 µM (inactive) | > 10 µM (inactive) | 2.67 µM (inactive) | 9.27 µM | > 10 µM (inactive) | – | > 10 µM (inactive) | 4.43 µM (inactive) | > 10 µM (inactive) | 4.61 µM (inactive) | – | > 10 µM (inactive) | 7.21 µM (inactive) | > 10 µM (inactive) | – | > 10 µM (inactive) | 6.58 µM (inactive) | > 10 µM (inactive) | 9.25 µM (inactive)
10 | C=C1[C@@H]2CCC3[C@]4(C)C(CC[C@@]5(C)C(=O)O[C@H](O)[C@@H]45)[C@H](O)[C@]3(C2)[C@H]1OC1OC(CO)C(O)C(O)C1O (some centres not stated) | > 50 µM (inactive) | > 50 µM (inactive) | > 50 µM (inactive) | > 50 µM (inactive) | > 50 µM | > 50 µM (inactive) | > 50 µM (inactive) | > 50 µM (inactive) | > 50 µM (inactive) | > 50 µM (inactive) | > 50 µM (inactive) | > 50 µM (inactive) | > 50 µM (inactive) | > 50 µM (inactive) | > 50 µM (inactive) | > 50 µM (inactive) | > 50 µM (inactive) | > 50 µM (inactive) | – | –
11 | COC(=O)[C@@H]1O[C@]12C(CO[Si](C)(C)C(C)(C)C)OC(n1ccc(=O)[nH]c1=O)C2O[Si](C)(C)C(C)(C)C (some centres not stated) | 20.6 µM (inactive) | 22 µM (inactive) | 24.1 µM (inactive) | 25.9 µM (inactive) | 28.3 µM | 7.93 µM (inactive) | – | 15.3 µM (inactive) | 12.4 µM (inactive) | 19.8 µM (inactive) | 15.5 µM (inactive) | 16.7 µM (inactive) | 30.9 µM (inactive) | 20.9 µM (inactive) | 21.8 µM (inactive) | 19.7 µM (inactive) | 22.1 µM (inactive) | 18.9 µM (inactive) | 27.4 µM (inactive) | 19.7 µM (inactive)
12 | O=[N+]([O-])c1ccc(S(=O)(=O)n2c3ccc(Br)cc3c3nc4ccccc4nc32)cc1 | > 100 µM (inactive) | > 100 µM (inactive) | > 100 µM (inactive) | – | > 100 µM | > 100 µM (inactive) | 53.6 µM (inactive) | > 100 µM (inactive) | – | > 100 µM (inactive) | > 100 µM (inactive) | > 100 µM (inactive) | > 100 µM (inactive) | > 100 µM (inactive) | > 100 µM (inactive) | – | > 100 µM (inactive) | > 100 µM (inactive) | > 100 µM (inactive) | > 100 µM (inactive)
13 | COc1ccc(C2SCC(=O)N2NC(=O)c2ccc(NC(C)=O)cc2)cc1 (configuration not stated) | > 100 µM (inactive) | > 100 µM (inactive) | > 100 µM (inactive) | > 100 µM (inactive) | > 100 µM | > 100 µM (inactive) | > 100 µM (inactive) | > 100 µM (inactive) | > 100 µM (inactive) | > 100 µM (inactive) | > 100 µM (inactive) | > 100 µM (inactive) | > 100 µM (inactive) | – | > 100 µM (inactive) | > 100 µM (inactive) | > 100 µM (inactive) | > 100 µM (inactive) | 38 µM (inactive) | –
14 | CSc1ncnc2c1ncn2CCC(=O)O | > 100 µM (inactive) | > 100 µM (inactive) | > 100 µM (inactive) | > 100 µM (inactive) | – | > 100 µM (inactive) | – | > 100 µM (inactive) | > 100 µM (inactive) | > 100 µM (inactive) | > 100 µM (inactive) | > 100 µM (inactive) | > 100 µM (inactive) | > 100 µM (inactive) | > 100 µM (inactive) | > 100 µM (inactive) | > 100 µM (inactive) | > 100 µM (inactive) | > 100 µM (inactive) | > 100 µM (inactive)
15 | CN(Nc1cc(=O)[nH]c(=O)[nH]1)c1ccccc1 | > 100 µM (inactive) | > 100 µM (inactive) | > 100 µM (inactive) | > 100 µM (inactive) | – | > 100 µM (inactive) | 52 µM (inactive) | > 100 µM (inactive) | > 100 µM (inactive) | > 100 µM (inactive) | > 100 µM (inactive) | > 100 µM (inactive) | > 100 µM (inactive) | > 100 µM (inactive) | > 100 µM (inactive) | > 100 µM (inactive) | > 100 µM (inactive) | > 100 µM (inactive) | > 100 µM (inactive) | –
